From US7618816B2, “Metal-binding therapeutic peptides” (Ontherix, Inc., priority 2005, dated 2009)
“And” between values parts separate entries of the source, which are not always exact repeats. Identical values can stand only once. Where a SMILES comes first, the peptide text is derived from it. Where no end group is shown, it is not given here. The star is where a group is joined. Biotin = O=C1N[C@H]2[C@H](CS[C@H]2CCCCC(=O)*)N1

What was measured:
MCF-7 = assay: Cytotoxicity of MBD therapeutic peptides; assay type: cell-based, human; details: relative to equal dose of control MBD peptide, only p < 0.05 shown, 1-4 experiments
Description: (§1) Also, peptides such as NFKB and CSK are of interest, targeting stress-coping mechanisms such as inflammation. The breast cancer lines tested are HS578T, MX-1, MDA-MB231, MDA-MB435 and MCF7. Leukemia cell lines tested for cytotoxicity effects with these MBD-tagged peptides are CCRF-CEM, RPMI-8226 and MOLT-4. Overall, MCF-7 and CCRF-CEM yield the most consistent data and the strongest effect across the board (Table 12). In addition, elevated levels of cytotoxicity are observed when multiple peptides are combined while keeping the overall amount of peptide added constant. Cytotoxicity increases with the number of peptides added per cocktail and is further enhanced by combining peptide cocktail treatment with paclitaxel.

MOLT-4 = assay: Cytotoxicity of MBD therapeutic peptides; assay type: cell-based, human; details: relative to equal dose of control MBD peptide, only p < 0.05 shown, 1-4 experiments
Description: as §1

CCRF-CEM = assay: Cytotoxicity of MBD therapeutic peptides; assay type: cell-based, human; details: relative to equal dose of control MBD peptide, only p < 0.05 shown, 1-4 experiments
Description: as §1

Hs578T = assay: Cytotoxicity of MBD therapeutic peptides; assay type: cell-based; details: relative to equal dose of control MBD peptide, only p < 0.05 shown, 1-4 experiments
Description: as §1

MDA-MB231 = assay: Cytotoxicity of MBD therapeutic peptides; assay type: cell-based, human; details: relative to equal dose of control MBD peptide, only p < 0.05 shown, 1-4 experiments
Description: as §1

MX-I = assay: Cytotoxicity of MBD therapeutic peptides; assay type: cell-based, human; details: relative to equal dose of control MBD peptide, only p < 0.05 shown, 1-4 experiments
Description: as §1

SR = assay: Cytotoxicity of MBD therapeutic peptides; assay type: cell-based; details: relative to equal dose of control MBD peptide, only p < 0.05 shown, 1-4 experiments
MDA-MB435 = assay: Cytotoxicity of MBD therapeutic peptides; assay type: cell-based; details: relative to equal dose of control MBD peptide, only p < 0.05 shown, 1-4 experiments
Description: as §1

RPMI-8826 = assay: Cytotoxicity of MBD therapeutic peptides; assay type: cell-based, human; details: relative to equal dose of control MBD peptide, only p < 0.05 shown, 1-4 experiments
Description: as §1

cancer cells = assay: Selective cytotoxicity, cancer cells versus normal counterparts; assay type: cell-based, human
Description: as §1

| Compound | % viability @ 48 hr/25 ug/ml peptide, MCF-7 (MCF-7) | % viability @ 48 hr/25 ug/ml peptide, MOLT-4 (MOLT-4) | % viability @ 48 hr/25 ug/ml peptide, CCRF-CEM (CCRF-CEM) | % viability @ 48 hr/25 ug/ml peptide, Hs578T (Hs578T) | % viability @ 48 hr/25 ug/ml peptide, MDA-MB231 (MDA-MB231) [%] | % viability @ 48 hr/25 ug/ml peptide, MX-I (MX-I) | % viability @ 48 hr/25 ug/ml peptide, SR (SR) | % viability @ 48 hr/25 ug/ml peptide, MDA-MB435 (MDA-MB435) | % viability @ 48 hr/25 ug/ml peptide, RPMI-8826 (RPMI-8826) [%] | Cytotoxic effect on cancer cells versus normal counterparts (in words) (cancer cells) |
| --- | --- | --- | --- | --- | --- | --- | --- | --- | --- | --- |
| CC(C)[C@H](NC(=O)[C@H](C)NC(=O)[C@H](Cc1c[nH]c2ccccc12)NC(=O)[C@H](CS)NC(=O)[C@H](Cc1ccccc1)NC(=O)CNC(=O)[C@H](CCCNC(=N)N)NC(=O)[C@H](CCCCN)NC(=O)[C@H](CCCNC(=N)N)NC(=O)CNC(=O)[C@H](CCCCN)NC(=O)[C@H](CO)NC(=O)[C@@H]1CCCN1C(=O)[C@H](CCCNC(=N)N)NC(=O)[C@H](CS)NC(=O)[C@H](CCC(N)=O)NC(=O)[C@H](CCCCN)NC(=O)[C@H](CCCCN)NC(=O)[C@H](CCCCN)NC(=O)[C@H](Cc1ccc(O)cc1)NC(=O)[C@H](Cc1ccccc1)NC(=O)CNC(=O)[C@H](CCCCN)NC(=O)[C@H](CCCCN)NC(=O)CCCC[C@@H]1SC[C@@H]2NC(=O)N[C@@H]21)C(=O)N[C@@H](C)C(=O)N[C@@H](CCC(=O)O)C(=O)N[C@@H](Cc1ccc(O)cc1)C(=O)N[C@@H](C)C(=O)N[C@@H](CCCNC(=N)N)C(=O)N[C@H](C(=O)N[C@@H](CCC(N)=O)C(=O)N[C@@H](CCCCN)C(=O)N[C@@H](CCCNC(=N)N)C(=O)N[C@@H](CCCCN)C(=O)O)C(C)C [CSK] (Biotin-KKGFYKKKQCRPSKGRKRGFCWAVAEYARVQKRK-OH) | 21.1 ± 4.1% and 41.3 ± 5.8% | 81.0 ± 7.1% and 54.8 ± 9.7% | 75.1 ± 4.5% and 85.5 ± 2.3% | 50.2 ± 1.6% and 76.3 ± 0.6% |  |  |  |  |  |  |
| CC(C)C[C@H](NC(=O)[C@H](C)NC(=O)[C@H](C)NC(=O)[C@H](Cc1c[nH]c2ccccc12)NC(=O)[C@H](CS)NC(=O)[C@H](Cc1ccccc1)NC(=O)CNC(=O)[C@H](CCCNC(=N)N)NC(=O)[C@H](CCCCN)NC(=O)[C@H](CCCNC(=N)N)NC(=O)CNC(=O)[C@H](CCCCN)NC(=O)[C@H](CO)NC(=O)[C@@H]1CCCN1C(=O)[C@H](CCCNC(=N)N)NC(=O)[C@H](CS)NC(=O)[C@H](CCC(N)=O)NC(=O)[C@H](CCCCN)NC(=O)[C@H](CCCCN)NC(=O)[C@H](CCCCN)NC(=O)[C@H](Cc1ccc(O)cc1)NC(=O)[C@H](Cc1ccccc1)NC(=O)CNC(=O)[C@H](CCCCN)NC(=O)[C@H](CCCCN)NC(=O)CCCC[C@@H]1SC[C@@H]2NC(=O)N[C@@H]21)C(=O)N[C@@H](CC(=O)O)C(=O)N[C@@H](Cc1c[nH]c2ccccc12)C(=O)N[C@@H](CO)C(=O)N[C@@H](Cc1c[nH]c2ccccc12)C(=O)N[C@@H](CC(C)C)C(=O)N[C@@H](CCC(N)=O)C(=O)N[C@H](C(=O)O)[C@@H](C)O [NEMO] (Biotin-KKGFYKKKQCRPSKGRKRGFCWAALDWSWLQT-OH) | 77.0 ± 46.7% |  |  | 81.3 ± 3.0% | 79.0 ± 0.8 | 59.1 ± 3.2% | 56.9 ± 6.2% | 67.4 ± 21.1% and 90.2 ± 3.6% |  |  |
| CSCC[C@H](NC(=O)[C@H](CC(C)C)NC(=O)[C@H](CCCCN)NC(=O)[C@H](CCC(N)=O)NC(=O)[C@H](CCCNC(=N)N)NC(=O)[C@H](CCCCN)NC(=O)[C@H](CCCNC(=N)N)NC(=O)[C@H](CCC(N)=O)NC(=O)[C@@H](NC(=O)[C@@H]1CCCN1C(=O)[C@H](C)NC(=O)[C@H](Cc1c[nH]c2ccccc12)NC(=O)[C@H](CS)NC(=O)[C@H](Cc1ccccc1)NC(=O)CNC(=O)[C@H](CCCNC(=N)N)NC(=O)[C@H](CCCCN)NC(=O)[C@H](CCCNC(=N)N)NC(=O)CNC(=O)[C@H](CCCCN)NC(=O)[C@H](CO)NC(=O)[C@@H]1CCCN1C(=O)[C@H](CCCNC(=N)N)NC(=O)[C@H](CS)NC(=O)[C@H](CCC(N)=O)NC(=O)[C@H](CCCCN)NC(=O)[C@H](CCCCN)NC(=O)[C@H](CCCCN)NC(=O)[C@H](Cc1ccc(O)cc1)NC(=O)[C@H](Cc1ccccc1)NC(=O)CNC(=O)[C@H](CCCCN)NC(=O)[C@H](CCCCN)NC(=O)CCCC[C@@H]1SC[C@@H]2NC(=O)N[C@@H]21)C(C)C)C(=O)N1CCC[C@H]1C(=O)O [NFKB] (Biotin-KKGFYKKKQCRPSKGRKRGFCWAPVQRKRQKLMP-OH) | 32.8 ± 17.7% | 35.9 ± 6.8% and 22.5 ± 3.5% | 47.4 ± 13.9% | 36.3 ± 5.6% and 30.6 ± 2.7% | 91.6 ± 6.1 | 74.1 ± 6.1% |  | 18.0 ± 1.6% and 29.6 ± 2.6% | 64.6 ± 14.3 |  |
| CC(C)C[C@H](NC(=O)[C@H](CC(C)C)NC(=O)[C@H](CCCCN)NC(=O)[C@H](Cc1c[nH]c2ccccc12)NC(=O)[C@@H](NC(=O)[C@H](CC(=O)O)NC(=O)[C@H](CO)NC(=O)[C@H](Cc1ccccc1)NC(=O)[C@@H](NC(=O)[C@H](CCC(=O)O)NC(=O)CCCC[C@@H]1SC[C@@H]2NC(=O)N[C@@H]21)[C@@H](C)O)C(C)C)C(=O)N[C@@H](CCCCN)C(=O)N[C@@H](CCCCN)C(=O)NCC(=O)N[C@@H](Cc1ccccc1)C(=O)N[C@@H](Cc1ccc(O)cc1)C(=O)N[C@@H](CCCCN)C(=O)N[C@@H](CCCCN)C(=O)N[C@@H](CCCCN)C(=O)N[C@@H](CCC(N)=O)C(=O)N[C@@H](CS)C(=O)N[C@@H](CCCNC(=N)N)C(=O)N1CCC[C@H]1C(=O)N[C@@H](CO)C(=O)N[C@@H](CCCCN)C(=O)NCC(=O)N[C@@H](CCCNC(=N)N)C(=O)N[C@@H](CCCCN)C(=O)N[C@@H](CCCNC(=N)N)C(=O)NCC(=O)N[C@@H](Cc1ccccc1)C(=O)N[C@@H](CS)C(=O)N[C@@H](Cc1c[nH]c2ccccc12)C(=O)O [PEP-2] (Biotin-ETFSDVWKLLKKGFYKKKQCRPSKGRKRGFCW-OH) | 19.3 ± 6.3% and 33.5 ± 4.4% and 35.6 ± 5.7% | 63.5 ± 7.7% and 57.9 ± 1.3% and 88.2 ± 2.6% |  | 31.1 ± 3.0% and 33.5 ± 2.3% | 40.7 ± 1.8 | 6.8 ± 1.5% and 9.0 ± 0.6% | 33.7 ± 16.0% | 18.5 ± 1.0% | 38.4 ± 4.2 | strong cytotoxic effect on cancer cells but not their human counterparts |
| Biotin-KKGFYKKKQCRPSKGRKRGFCWAVQTLLQQMQDKFQTMSDQI (cysteines drawn unpaired) [M9HSBP2] |  | 94.2 ± 17.1% | 92.6 ± 2.0% |  |  |  | 88.9 ± 4.0% and 87.7 ± 6.7% |  | 81.7 ± 2.9 |  |
